Experiment [1] deals with mice with AAP-induced hepatotoxicity. As to the kind of experiment: Survival of mice with acetaminophen (AAP)-induced hepatotoxicity. It is filed as in vivo, CBA/H Zgr inbred mice. The note with it: for No of dead mice/Total No of mice / Mortality (%): 48 hours; for mortality in comparison with control mice given saline: 250 mg/kg. The source says:
The hepatoprotective effect of a composition in accordance with the invention was investigated in mice with acetaminophen (paracetamol) induced hepatotoxicity.
CBA/H Zgr inbred mice were raised in an animal colony unit. Mice of both sexes aged 3 to 4 month were used in the experiments. Mice were maintained under standard laboratory conditions, fed with commercially available murine food pellets and allowed water ad libitum.
The procedure of Guarner was followed (see Hepatology 1988; 3:248-53). To induce hepatic drug-metabolising enzymes, mice were given phenobarbitone-sodium in drinking water for 7 days (0.3 g/L). Thereafter, mice were fasted overnight. […]
The above ingredients were dissolved in phosphate buffered saline (PBS) to which several drops of Tween 20™ (polyoxyethylene 20 sorbitan monolaurate) were added (50 μl/ml). The resulting white milk suspension was administered to mice intraperitoneally.
At the same time, control animals were given 0.5 ml of pyrogen-free saline to which several drops of Tween 20™ (50 μl/ml) were added.
Acetaminophen, dissolved in heated PBS, was given intragastrically, by stomach tube, in a volume of 0.5 ml. Animals were allowed food 4 hours later. Mortality of mice was followed for 48 hours, as previous results have shown that control mice (given saline rather than the composition before acetaminophen) either die within this period or fully recover and survive indefinitely.
Differences in survival between groups of mice were compared by χ^2-test. Plasma AST and ALT concentrations are expressed as means±SEM and differences between groups were compared by Student's t-test.

Experiment [2] has the same test system. The experiment is described as follows: Plasma aminotransferase levels in mice with AAP-induced hepatotoxicity. It is filed as in vivo, CBA/H Zgr inbred mice. As for the experimental part: Plasma aspartate aminotransferase (AST) and alanine aminotransferase (ALT) were measured 24 hours after the administration of acetaminophen, because it has been observed that the levels of AST and ALT are at their peak values at this time. Mice were given 250 units of […] intraoeritoneally 15 minutes before bleeding. Blood was obtained by puncture of medial orbital angle using glass capillary tubes. Plasma was stored at −20° C. until aminotransferase determination, which was carried out using standard laboratory techniques (see Expert Panel on Enzymes, Committee on Standards, Clin. Chem. Biochem. 1977; 15: 39-51 and Clin. Chem. Acta. 1980; 105: 147F-54F). Differences in survival between groups of mice were compared by χ^2-test. Plasma AST and ALT concentrations are expressed as means±SEM and differences between groups were compared by Student's t-test. The effect of a Compound of the invention (Hymecromone) was investigated on plasma aminotransferase levels in mice with AAP-induced hepatotoxicity. Hymecromone (250 mg/kg) or a control of saline was given to mice 30 minutes before administration of acetaminophen (220 mg/kg). Plasma AST and ALT were measured 24 hours after acetaminophen administration. […] As shown, in comparison with normal mice, the administration of acetaminophen increased AST and ALT by approximately 19 and 100 times, respectively.

Where [3] appears, read: Table 1, Hymecromone 50 mg/kg i.p. 30 minutes before AAP 300 mg/kg.
The mark [4] stands for this setting: Table 1, Hymecromone 250 mg/kg i.p. 30 minutes before AAP 300 mg/kg, P < 0.01 vs saline.
Setting [5] is: Table 2, Hymecromone 50 mg/kg i.p. 30 minutes before AAP 250 mg/kg.
Setting [6] is: Table 2, Hymecromone 250 mg/kg i.p. 30 minutes before AAP 250 mg/kg, P < 0.001 vs saline.
Setting [7] is: Table 3, Hymecromone 250 mg/kg i.p. 30 minutes before AAP 250 mg/kg, P < 0.001 vs saline.
[8] abbreviates: Hymecromone 250 mg/kg, AAP 220 mg/kg, P<0.005.
[9] abbreviates: plasma, Hymecromone 250 mg/kg 30 minutes before AAP 220 mg/kg, 24 hours after AAP, mean, n = 16, P < 0.005 vs saline.

Marks after values point to notes of the source that are not given here.

In the case of `Cc1cc(=O)oc2cc(O)ccc12` [Hymecromone, 7-hydroxy-4-methylcoumarin], the “No of dead mice/Total No of mice” value in experiment [1] (Table 1, Hymecromone 10 mg/kg i.p. 30 minutes before AAP 300 mg/kg intragastrically) was 12/12; in experiment [1] (setting [3]), 11/12; in experiment [1] (setting [4]), 2/7; in experiment [1] (setting [5]), 9/13; in experiment [1] (setting [6]), 0/13; in experiment [1] (setting [7]), 0/15. The “Mortality (%)” value in experiment [1] (Table 1, Hymecromone 10 mg/kg i.p. 30 minutes before AAP 300 mg/kg) was 100%; in experiment [1] (setting [3]) it was 92%; in experiment [1] (setting [4]), 29%; in experiment [1] (setting [5]), “(93) %”; in experiment [1] (setting [6]), “(0)^c %”; in experiment [1] (setting [7]), “(0)^c %”. Besides, the “mortality in comparison with control mice given saline” value in experiment [1] (Table 1 experiment, P<0.01) was “significantly reduced the mortality”; in experiment [1] (two further experiments (Tables 2 and 3), P<0.001), “statistically significantly reduced the mortality”. For the same compound, the “reduction of the increase of ALT in comparison with control mice pretreated with saline” value in experiment [2] (setting [8]) is reported as “three times”. Besides, the “reduction of the increase of AST in comparison with control mice pretreated with saline” value in experiment [2] (setting [8]) was “five times”. Besides, the ALT in experiment [2] (setting [9]) was found to be 776 U/L. In experiment [2] (setting [9]), this compound yielded an AST of 267 U/L.

The values above are taken from US6407073B1, “Use of coumarin derivatives for the treatment of digestive tract disorders” (Bio-Monde Preparations Limited, priority 1997, dated 2002).
